# According to article PMC8214221, “Sequence determinants in the cathelicidin LL-37 that promote inflammation via presentation of RNA to scavenger receptors” (The Journal of Biological Chemistry, 2021):
# Residues, ends and D or L forms follow the SMILES beside them.
# Legend:
# [1] = tested on: normal human epidermal keratinocytes (NHEKs); experiment: LDH release cytotoxicity assay in keratinocytes; type: cell-based; settings: minimal concentration giving 50% LDH release by NHEKs
# In short: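 Normal human epidermal keratinocytes were exposed to LL-34 parent and alanine-substituted peptides. Cytotoxicity was read as LDH release in fresh culture supernatants after treatment, using a commercial kit, and reported as the minimal concentration showing toxicity.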
# [2] = tested on: U1 dsRNA binding on the surface of NHEKs; experiment: Surface binding of Alexa 488-labeled U1 dsRNA to NHEKs; type: cell-based, human; settings: Alexa 488 U1 0.05-10 μg/ml + peptide 2.5 μM, 10 min on ice; fluorometer RFU, n = 3
# Experimental: We also assayed the dynamics of binding of U1 dsRNA on the surface of NHEKs in the presence of LL-34 mutant peptides. NHEKs were exposed to fluorescent Alexa 488–labeled U1 at increasing concentrations (0.05–10 μg/ml) and LL-34 parent peptide, LL-34 I24A, LL-34 L31A, LL-34 K25A, and LL-34 proline at isoleucine position 20 (I20P) for 10 min on ice to allow for surface binding of U1 to cells in the presence of peptides (Fig. 5A).
# Figure 5 Biophysical properties of binding of U1 dsRNA to LL-34 peptides and SRB1 protein.A, NHEKs were treated with Alexa 488–labeled U1 dsRNA or a combination of Alexa 488–labeled U1 dsRNA (0.05–10 μg/ml) and LL-34 peptides LL-34 parent, LL-34 I24A, LL-34 K25A, LL-34 L31A, and LL-34 I20P at 2.5 μM as shown. The cells were prechilled on ice for 15 min before the addition of U1 dsRNA and/or LL-34 peptides, and the surface binding of U1 dsRNA was allowed for 10 min. The amount of U1 dsRNA binding to NHEKs was assessed with a fluorometer, and data are represented as relative fluorescence units (RFUs) (n = 3). B, NHEKs were similarly treated with Alexa-labeled U1 dsRNA (1.5 μg/ml) and/or unlabeled U1 dsRNA (15 μg/ml) with the addition of LL-34 parent peptide at 2.5 μM. The experiment was performed on ice for 10 min, and the relative binding of Alexa 488 U1 dsRNA was assessed on a fluorometer and is shown as RFU (n = 3) (∗p < 0.05) one-way ANOVA. C, SAXS spectra of LL-34 peptides LL-34 parent, LL-34 F5A, LL-34 I24A, and LL-34 L31A incubated with U1 dsRNA. The peptide-U1 dsRNA (P/R) ratio is varied at 1 and 2 for all conditions. The U1 dsRNA interhelical spacing (Q) was calculated by the peak position. The domain size (L) was calculated by the full width at half maximum of the first peak. LL-34, 34-amino acid peptide; NHEKs, normal human epidermal keratinocytes; SAXS, small-angle X-ray scattering.
smiles,measurement,setting,value
CC[C@H](C)[C@H](NC(=O)[C@H](CCCCN)NC(=O)[C@H](CCC(=O)O)NC(=O)[C@H](CCCCN)NC(=O)[C@H](CO)NC(=O)[C@H](CCCCN)NC(=O)[C@H](CCCNC(=N)N)NC(=O)[C@H](Cc1ccccc1)NC(=O)[C@H](Cc1ccccc1)NC(=O)[C@H](CC(=O)O)NC(=O)CNC(=O)[C@H](CC(C)C)NC(=O)[C@@H](N)CC(C)C)C(=O)NCC(=O)N[C@@H](CCCCN)C(=O)N[C@@H](CCC(=O)O)C(=O)N[C@@H](Cc1ccccc1)C(=O)N[C@@H](CCCCN)C(=O)N[C@@H](CCCNC(=N)N)C(=O)N[C@H](C(=O)N[C@H](C(=O)N[C@@H](CCC(N)=O)C(=O)N[C@@H](CCCNC(=N)N)C(=O)N[C@H](C(=O)N[C@@H](C)C(=O)N[C@@H](CC(=O)O)C(=O)N[C@@H](Cc1ccccc1)C(=O)N[C@@H](CC(C)C)C(=O)N[C@@H](CCCNC(=N)N)C(=O)N[C@@H](CC(N)=O)C(=O)N[C@@H](CC(C)C)C(=O)N[C@H](C(=O)N1CCC[C@H]1C(=O)N[C@@H](CCCNC(=N)N)C(=O)O)C(C)C)[C@@H](C)CC)C(C)C)[C@@H](C)CC [LL-34—K25A] (H-LLGDFFRKSKEKIGKEFKRIVQRIADFLRNLVPR-OH),Minimal cytotoxic concentration in NHEK (LD50),[1],10 µM
same,Binding of Alexa 488-labeled U1 dsRNA on the NHEK cell surface,[2],enhanced binding of U1 on the cell surface
